# From patent US20210045385A1, “PYRIDAZINONE-SUBSTITUTED KETOXIMES AS HERBICIDES” (FMC Corporation, priority 2018, published 2021)
# Tests used:
# Type in all cases: in vivo
# [1] = tested on: rice (Oryza sativa); test: Test B flooded paddy test, visual plant response rating; settings: 250 g ai/ha, Flood, applied to paddy water, 2-leaf stage, evaluated after 13 to 15 days
# Description: (§1) Plant species in the flooded paddy test selected from rice (Oryza sativa), sedge, umbrella (small-flower umbrella sedge, Cyperus difformis), ducksalad (Heteranhera limosa), and barnyardgrass (Echinochloa crus-galli) were grown to the 2-leaf stage for testing. At time of treatment, test pots were flooded to 3 cm above the soil surface treated by application of test compounds directly to the paddy water, and then maintained at that water depth for the duration of the test. Treated plants and controls were maintained in a greenhouse for 13 to 15 days, after which time all species were compared to controls and visually evaluated. […] A dash (-) response means no test result.
# [2] = tested on: ducksalad (Heteranhera limosa); test: as above; settings: 250 g ai/ha, Flood, applied to paddy water, 2-leaf stage, evaluated after 13 to 15 days
# Description: as §1
# [3] = tested on: sedge, umbrella (small-flower umbrella sedge, Cyperus difformis); test: as above; settings: 250 g ai/ha, Flood, applied to paddy water, 2-leaf stage, evaluated after 13 to 15 days
# Description: as §1
# [4] = tested on: barnyardgrass (Echinochloa crus-galli); test: as above; settings: 250 g ai/ha, Flood, applied to paddy water, 2-leaf stage, evaluated after 13 to 15 days
# Description: as §1
# [5] = tested on: Italian ryegrass (Lolium multiflorum); test: Test A preemergence, visual plant response rating; settings: for Ryegrass, Italian plant response rating: 125 g ai/ha, preemergence, 0 to 100 scale, 0 no effect, 100 complete control; for Ryegrass, Italian plant response rating (0 to 100 scale): 500 g ai/ha Preemergence, approx. 10 days
# From the text: (§2) Seeds of plant species selected from barnyardgrass (Echinochloa crus-galli), kochia (Kochia scoparia), ragweed (common ragweed, Ambrosia elatior), Italian ryegrass (Lolium multiflorum), foxtail, giant (giant foxtail, Setaria faberii), foxtail, green (green foxtail, Setaria viridis), and pigweed (Amaranthus retroflexus) were planted into a blend of loam soil and sand and treated preemergence with a directed soil spray using test chemicals formulated in a non-phytotoxic solvent mixture which included a surfactant.
# (§3) At the same time, plants selected from these weed species and also wheat (Triticum aestivum), corn (Zea mays), blackgrass (Alopecurus myosuroides), and galium (catchweed bedstraw, Galium aparine) were planted in pots containing the same blend of loam soil and sand and treated with postemergence applications of test chemicals formulated in the same manner. Plants ranged in height from 2 to 10 cm and were in the one- to two-leaf stage for the postemergence treatment. Treated plants and untreated controls were maintained in a greenhouse for approximately 10 days, after which time all treated plants were compared to untreated controls and visually evaluated for injury. Plant response ratings, summarized in Table A, are based on a 0 to 100 scale where 0 is no effect and 100 is complete control. A dash (-) response means no test result.
# [6] = tested on: foxtail, giant (giant foxtail, Setaria faberii); test: Test A preemergence, visual plant response rating; settings: for Foxtail, Giant plant response rating: 125 g ai/ha, preemergence, 0 to 100 scale, 0 no effect, 100 complete control; for Foxtail, Giant plant response rating (0 to 100 scale): 500 g ai/ha Preemergence, approx. 10 days
# From the text: as §2, §3
# [7] = tested on: kochia (Kochia scoparia); test: Test A preemergence, visual plant response rating; settings: for Kochia plant response rating: 125 g ai/ha, preemergence, 0 to 100 scale, 0 no effect, 100 complete control; for Kochia plant response rating (0 to 100 scale): 500 g ai/ha Preemergence, approx. 10 days
# From the text: as §2, §3
# [8] = tested on: pigweed (Amaranthus retroflexus); test: Test A preemergence, visual plant response rating; settings: for Pigweed plant response rating: 125 g ai/ha, preemergence, 0 to 100 scale, 0 no effect, 100 complete control; for Pigweed plant response rating (0 to 100 scale): 500 g ai/ha Preemergence, approx. 10 days
# From the text: as §2, §3
# [9] = tested on: barnyardgrass (Echinochloa crus-galli); test: Test A preemergence, visual plant response rating; settings: for Barnyardgrass plant response rating: 125 g ai/ha, preemergence, 0 to 100 scale, 0 no effect, 100 complete control; for Barnyardgrass plant response rating (0 to 100 scale): 500 g ai/ha Preemergence, approx. 10 days
# From the text: as §2, §3
# [10] = tested on: wheat (Triticum aestivum); test: Test A postemergence, visual plant response rating; settings: for Wheat plant response rating (0 to 100 scale): 500 g ai/ha, postemergence, 0 is no effect, 100 is complete control; for Wheat plant response rating: Postemergence, 125 g ai/ha, 0 to 100 scale (0 no effect, 100 complete control)
# From the text: as §2, §3
# [11] = tested on: galium (catchweed bedstraw, Galium aparine); test: Test A postemergence, visual plant response rating; settings: for Galium plant response rating (0 to 100 scale): 500 g ai/ha, postemergence, 0 is no effect, 100 is complete control; for Galium plant response rating: Postemergence, 125 g ai/ha, 0 to 100 scale (0 no effect, 100 complete control)
# From the text: as §2, §3
# [12] = tested on: ragweed (common ragweed, Ambrosia elatior); test: Test A postemergence, visual plant response rating; settings: for Ragweed plant response rating (0 to 100 scale): 500 g ai/ha, postemergence, 0 is no effect, 100 is complete control; for Ragweed plant response rating: Postemergence, 125 g ai/ha, 0 to 100 scale (0 no effect, 100 complete control)
# From the text: as §2, §3
# [13] = tested on: Italian ryegrass (Lolium multiflorum); test: Test A postemergence, visual plant response rating; settings: for Ryegrass, Italian plant response rating (0 to 100 scale): 500 g ai/ha, postemergence, 0 is no effect, 100 is complete control; for Ryegrass, Italian plant response rating: Postemergence, 125 g ai/ha, 0 to 100 scale (0 no effect, 100 complete control)
# From the text: as §2, §3
# [14] = tested on: foxtail, giant (giant foxtail, Setaria faberii); test: Test A postemergence, visual plant response rating; settings: for Foxtail, Giant plant response rating (0 to 100 scale): 500 g ai/ha, postemergence, 0 is no effect, 100 is complete control; for Foxtail, Giant plant response rating: Postemergence, 125 g ai/ha, 0 to 100 scale (0 no effect, 100 complete control)
# From the text: as §2, §3
# [15] = tested on: corn (Zea mays); test: Test A postemergence, visual plant response rating; settings: for Corn plant response rating (0 to 100 scale): 500 g ai/ha, postemergence, 0 is no effect, 100 is complete control; for Corn plant response rating: Postemergence, 125 g ai/ha, 0 to 100 scale (0 no effect, 100 complete control)
# From the text: as §2, §3
# [16] = tested on: kochia (Kochia scoparia); test: Test A postemergence, visual plant response rating; settings: for Kochia plant response rating (0 to 100 scale): 500 g ai/ha, postemergence, 0 is no effect, 100 is complete control; for Kochia plant response rating: Postemergence, 125 g ai/ha, 0 to 100 scale (0 no effect, 100 complete control)
# From the text: as §2, §3
# [17] = tested on: pigweed (Amaranthus retroflexus); test: Test A postemergence, visual plant response rating; settings: for Pigweed plant response rating (0 to 100 scale): 500 g ai/ha, postemergence, 0 is no effect, 100 is complete control; for Pigweed plant response rating: Postemergence, 125 g ai/ha, 0 to 100 scale (0 no effect, 100 complete control)
# From the text: as §2, §3
# [18] = tested on: blackgrass (Alopecurus myosuroides); test: Test A postemergence, visual plant response rating; settings: for Blackgrass plant response rating (0 to 100 scale): 500 g ai/ha, postemergence, 0 is no effect, 100 is complete control; for Blackgrass plant response rating: Postemergence, 125 g ai/ha, 0 to 100 scale (0 no effect, 100 complete control)
# From the text: as §2, §3
# [19] = tested on: barnyardgrass (Echinochloa crus-galli); test: Test A postemergence, visual plant response rating; settings: for Barnyardgrass plant response rating (0 to 100 scale): 500 g ai/ha, postemergence, 0 is no effect, 100 is complete control; for Barnyardgrass plant response rating: Postemergence, 125 g ai/ha, 0 to 100 scale (0 no effect, 100 complete control)
# From the text: as §2, §3
Structure (SMILES),"Plant response rating, Rice (0 to 100 scale, 0 is no effect, 100 is complete control) [1]","Plant response rating, Ducksalad (0 to 100 scale, 0 is no effect, 100 is complete control) [2]","Plant response rating, Sedge, Umbrella (0 to 100 scale, 0 is no effect, 100 is complete control) [3]","Plant response rating, Barnyardgrass (0 to 100 scale, 0 is no effect, 100 is complete control) [4]","Ryegrass, Italian plant response rating [5]","Ryegrass, Italian plant response rating (0 to 100 scale) [5]","Foxtail, Giant plant response rating [6]","Foxtail, Giant plant response rating (0 to 100 scale) [6]",Kochia plant response rating [7],Kochia plant response rating (0 to 100 scale) [7],Pigweed plant response rating [8],Pigweed plant response rating (0 to 100 scale) [8],Barnyardgrass plant response rating [9],Barnyardgrass plant response rating (0 to 100 scale) [9],Wheat plant response rating (0 to 100 scale) [10],Wheat plant response rating [10],Galium plant response rating (0 to 100 scale) [11],Galium plant response rating [11],Ragweed plant response rating (0 to 100 scale) [12],Ragweed plant response rating [12],also measured
Cc1nn(C)c(=O)c(/C(=N/OC(C)C)c2ccc(F)c3ccccc23)c1O [Compound 88],0,0,0,0,90,100,90,100,10,90,100,100,70,90,50,10,90,90,90,100,"Ryegrass, Italian plant response rating (0 to 100 scale) [13]: 100; Ryegrass, Italian plant response rating [13]: 100; Foxtail, Giant plant response rating (0 to 100 scale) [14]: 90; Foxtail, Giant plant response rating [14]: 80; Corn plant response rating (0 to 100 scale) [15]: 30; Corn plant response rating [15]: 10; Kochia plant response rating (0 to 100 scale) [16]: 70; Kochia plant response rating [16]: 60; Pigweed plant response rating (0 to 100 scale) [17]: 100; Pigweed plant response rating [17]: 90; Blackgrass plant response rating (0 to 100 scale) [18]: 90; Blackgrass plant response rating [18]: 80; Barnyardgrass plant response rating (0 to 100 scale) [19]: 80; Barnyardgrass plant response rating [19]: 50"
CON=C(c1cc(Cl)ccc1Cl)c1c(O)c(C)nn(C)c1=O [Compound 98],0,0,0,0,80,90,60,70,60,60,90,100,50,60,20,0,100,80,90,80,"Ryegrass, Italian plant response rating (0 to 100 scale) [13]: 80; Ryegrass, Italian plant response rating [13]: 80; Foxtail, Giant plant response rating (0 to 100 scale) [14]: 80; Foxtail, Giant plant response rating [14]: 40; Corn plant response rating (0 to 100 scale) [15]: 20; Corn plant response rating [15]: 0; Kochia plant response rating (0 to 100 scale) [16]: 80; Kochia plant response rating [16]: 60; Pigweed plant response rating (0 to 100 scale) [17]: 80; Pigweed plant response rating [17]: 70; Blackgrass plant response rating (0 to 100 scale) [18]: 90; Blackgrass plant response rating [18]: 80; Barnyardgrass plant response rating (0 to 100 scale) [19]: 80; Barnyardgrass plant response rating [19]: 50"
